Here are results for four compounds from patent US9051572B2, “Modulators of Itch ubiquitinase activity” (RYBOQUIN COMPANY LIMITED, priority 2005, dated 2015).

What all share (format): cell-based, human
One assay concerns TAp73α. Briefly: Steady state protein levels analysis with proteasome inhibitor in Hek293 cells co-transfected with Itch. The following applies: MG132 50 μM, 40 min. Here is the method:
The concentration of TAp73α, TAp73 ? and p53 was monitored by Western blotting. […] 25 μg of cell lysates were subjected to Western blotting. p73 proteins were detected by an anti-HA antibody. The same blots were re-probed with anti Myc antibody to detect Itch and with anti-Actin antibody to show equal loading.

In another assay the test system is Itch. Briefly: Western blot of endogenous Itch after DNA damaging agents in Saos-2 cells. As to conditions: 24 and 48 hours, 2 μM doxorubicin, 15 μM etoposide, 5 μM cisplatin. Here is the method: (§1) FIG. 7 Itch is down regulated by DNA damaging agents. Saos-2 cells were treated with 2 μM doxorubicin (Doxo) for 24 or 48 hours then collected by trypsinization. Cells were lysed for western blotting (A) and half of the cells were ethanol fixed for apoptosis analysis (B). Western blots were performed with either anti-Itch (upper panel) or anti-p73 (lower panel) antibodies. Blots were stripped and re-probed with anti Lamin B antibody to show equal loading. Apoptosis was evaluated by flow cytometric analysis of PI stained cells. Non-treated controls (N.T.) are shown. H1299 cells transfected with HA-TAp73 ? (Con) are loaded as a control for p73 western blot.
(D) Western blot using anti-Itch antibody on Saos-2 cells treated for 24 and 48 hours with either 15 μM etoposide (Etopo) or 5 μM cisplatin (Cisp). Non-treated control cells are also shown (N.T.). Blots were stripped and re-probed with anti p73 antibody and Lamin B antibody to show equal loading.
Proteins were separated on SDS-PAGE and blotted onto nitrocellulose membranes. Filters were blocked with TBST 5% non-fat dry milk and incubated with primary antibodies for 2 hrs at room temperature (RT). Filters were incubated for 1 hour at RT using the appropriate horseradish peroxidase-conjugated secondary antibody (rabbit and mouse BioRad; goat Santa Cruz). Detection was performed with the enhanced chemiluminescence Supersignal West Pico (Pierce). […] Endogenous Itch was detected with a mouse monoclonal antibody (BD Bioscience), Actin (sc-1615) polyclonal goat antibody (Santa Cruz), Lamin B (sc-6217) goat polyclonal antibody (Santa Cruz), Hsp70 (sc-1060) polyclonal goat antibody (Santa Cruz), β-Tubulin (sc-9104) polyclonal rabbit antibody (Santa Cruz), p21 (sc-756) polyclonal rabbit antibody (Santa Cruz), p53 DO-1 and Pab1801 monoclonal mouse antibodies (Santa Cruz). c-Myc-tagged constructs were detected or immuno-precipitated with the sc-40 monoclonal mouse antibody (Santa Cruz), HA-tagged with the sc-805 polyclonal rabbit antibody (Santa Cruz), and the Flag-tagged constructs with the M2 monoclonal mouse antibody (Sigma).

A further assay concerns TAp73. The assay is described as follows: Western blot of endogenous p73 after doxorubicin in Saos-2 cells. As to conditions: 2 μM doxorubicin, 24 or 48 hours. Here is the method:
as §1
Proteins were separated on SDS-PAGE and blotted onto nitrocellulose membranes. Filters were blocked with TBST 5% non-fat dry milk and incubated with primary antibodies for 2 hrs at room temperature (RT). Filters were incubated for 1 hour at RT using the appropriate horseradish peroxidase-conjugated secondary antibody (rabbit and mouse BioRad; goat Santa Cruz). Detection was performed with the enhanced chemiluminescence Supersignal West Pico (Pierce). Anti-p73 is a monoclonal antibody (ER15) (Neomarkers). […]

The next assay has as its system Saos-2 cells. Briefly: Apoptosis by flow cytometric analysis of PI stained cells after doxorubicin. As to conditions: 2 μM doxorubicin, 24 or 48 hours. On the procedure: as §1
Human embryonal kidney cells (Hek293), HeLa cells and MEFs were grown in Dulbecco's modified Eagle medium (DMEM) (GibcoBRL); the human lung carcinoma cells H1299 and the human osteosarcoma cells Saos-2 were cultured in RPMI (GibcoBRL). MEF Itch−/− cells were prepared from Itch−/− mice (Y—C-Liu) or they were generous gift from Neil Copeland, Lynda Matesic, Nancy Jenkins. All media were supplemented with 10% (v/v) fetal bovine serum (FBS) (GibcoBRL). Saos-2-TAp73 ? were a kind gift of K. Vousden (Nakano, 2000). Saos-2-ΔNp73 ? were generated as described before (Maisse et al., 2004). […] Apoptosis was analysed by flow cytometric evaluation of DNA fragmentation.

Peptide text beside a SMILES is read from it. * marks the point of attachment. Cbz = O=C(OCc1ccccc1)*

On to `CC(C)C[C@@H](C=O)NC(=O)[C@H](CC(C)C)NC(=O)[C@H](CC(C)C)NC(=O)OCc1ccccc1` [MG132] (Cbz-Leu-Leu-Leu-aldehyde), for which the “steady state levels of TAp73α in presence of Itch” value in the assay with TAp73α is listed as “blocks the Itch-mediated TAp73α degradation”.

Take `N.N.[Cl][Pt][Cl]` [cisplatin]: the “endogenous Itch protein levels” value in the assay on Itch was “dramatic reduction in Itch protein levels”.

Take `COc1cccc2c1C(=O)c1c(O)c3c(c(O)c1C2=O)C[C@@](O)(C(=O)CO)C[C@@H]3O[C@H]1C[C@H](N)[C@H](O)[C@H](C)O1` [doxorubicin]: in the assay on TAp73, the “endogenous TAp73 levels” value is on record as “increase in endogenous TAp73 levels”. Further, the apoptosis result in the assay with Saos-2 cells is recorded as “increase in apoptosis”. The “endogenous Itch protein levels” value with Itch was “down-regulated”.

As for `COc1cc([C@@H]2c3cc4c(cc3[C@@H](O[C@@H]3O[C@@H]5CO[C@@H](C)O[C@H]5[C@H](O)[C@H]3O)[C@H]3COC(=O)[C@H]23)OCO4)cc(OC)c1O` [etoposide], in the assay on Itch, the “endogenous Itch protein levels” value was “dramatic reduction in Itch protein levels”.
